Results reported in article PMC4613240, “A Series of New Ligustrazine-Triterpenes Derivatives as Anti-Tumor Agents: Design, Synthesis, and Biological Evaluation” (International Journal of Molecular Sciences, 2015).

Key:
[1] = test system: HT-29 (human colon carcinoma); assay: MTT cytotoxicity assay, HT-29; type: cell-based; conditions: maximal tested concentration 20.0 μM
Procedure: (§1) The cytotoxicity of ligustrazine-triterpenes derivatives was evaluated on five tumor cell lines (Bel-7402, HepG2, HT-29, Hela, and MCF-7) using the standard MTT assay. In the study, the antineoplastic drug cisplatin (DDP) was selected as the positive control. The MDCK cell line was used to test the toxicity of the ligustrazine-triterpenes derivatives and DDP.
(§2) The cell lines Bel-7402 (human hepatocellular carcinoma), HepG2 (human hepatocellular carcinoma), HT-29 (human colon carcinoma), Hela (human cervical cancer), MCF-7 (human breast cancer) were included in this study. All these cell lines were provided by the Chinese Academy of Medical Sciences & Peking Union Medical College. Cultures were maintained as monolayers in RPMI 1640 supplemented with 10% (v/v) heat inactivated fetal bovine serum and 1% (v/v) enicillin/streptomycin (Thermo Technologies, New York, NY, USA) at 37 °C in a humidified atmosphere with 5% CO2. The ligustrazine derivatives under study were dissolved in DMSO (Sigma, St. Louis, MO, USA) and added at required concentrations to the cell culture. Cells incubated without the preparations served as the control.
(§3) The cytotoxicity of the compounds was evaluated on five cancer cell lines (Bel-7402, HepG2, HT-29, Hela, MCF-7) by the standard MTT assay. In short, exponentially growing cells were seeded into 96-well plates at a density 10^4 cells/mL. The plates were incubated at 37 °C in a humidified 5% CO2 atmosphere. Cells were allowed to adhere to the surface for 24 h and then treated with serial dilutions of the compounds for 72 h. Later, aliquots of [3-(4,5-dimethylthiazol-2-yl)-2,5-diphenyltetrazolium bromide] (MTT) solution (20 μL, 5 mg/mL) were added to each well and the incubation was continued for an additional 4 h. Then the supernatant medium was thrown away. The dark blue formazan crystals formed within the healthy cells were solubilized with DMSO (150 μL) and the absorbance was measured in a plate reader (BIORAD 550 spectrophotometer, Bio-rad Life Science Development Ltd., Beijing, China) at 490 nm. Wells containing no drugs were used as control group. The IC50 values were defined as the concentration of compounds that produced a 50% reduction of surviving cells and calculated using Logit-method. Tumor cell growth inhibitory rate was calculated in the following Equation (1): % inhibition = (1 − Sample group OD/Control group OD) × 100% (1)

[2] = test system: HepG2 (human hepatocellular carcinoma); assay: MTT cytotoxicity assay, HepG2; type: cell-based; conditions: 72 h, maximal tested concentration 20.0 μM
Procedure: as §1, §2, §3

[3] = test system: MCF-7 (human breast cancer); assay: MTT cytotoxicity assay, MCF-7; type: cell-based; conditions: maximal tested concentration 20.0 μM
Procedure: as §1, §2, §3

[4] = test system: Bel-7402 (human hepatocellular carcinoma); assay: MTT cytotoxicity assay, Bel-7402; type: cell-based; conditions: maximal tested concentration 20.0 μM
Procedure: as §1, §2, §3

[5] = test system: Hela (human cervical cancer); assay: MTT cytotoxicity assay, Hela; type: cell-based; conditions: 72 h, maximal tested concentration 20.0 μM
Procedure: as §1, §2, §3

[6] = test system: Madin-Darby canine kidney cell line (MDCK); assay: MTT cytotoxicity (nephrotoxicity/selectivity) assay, MDCK; type: cell-based; conditions: maximal tested concentration 20.0 μM, toxicity to MDCK kidney cells

| SMILES | IC50 ([1]; Homo sapiens, HT-29, 72 h) [µM] | IC50 ([2]; Homo sapiens, HepG2, 72 h) [µM] | IC50 ([3]; Homo sapiens, MCF7, 72 h) [µM] | IC50 ([4]; Homo sapiens, Bel-7402, 72 h) [µM] | IC50 ([5]; Homo sapiens, HeLa) [µM] | IC50 ([6]; Canis lupus familiaris) [µM] | melting point [°C] | IC50 ([1]; 72 h) [µM] | IC50 [2] [µM] | IC50 [6] [µM] | IC50 ([3]; 72 h) [µM] | IC50 ([4]; 72 h) [µM] | IC50 [5] [µM] |
| --- | --- | --- | --- | --- | --- | --- | --- | --- | --- | --- | --- | --- | --- |
| C=C(C)[C@@H]1CC[C@]2(C(=O)O)CC[C@]3(C)[C@H](CC[C@@H]4[C@@]5(C)CC[C@H](O)C(C)(C)[C@@H]5CC[C@]43C)[C@@H]12 [BA, betulinic acid, reference compound] | > 20 | > 20 | > 20 | > 20 | > 20 | – | – | – | – | – | – | – | – |
| Cc1nc(C)c(COC(=O)[C@]23CCC(C)(C)CC2C2=CCC4[C@@]5(C)CC[C@H](O)C(C)(C)C5CC[C@@]4(C)[C@]2(C)CC3)nc1C (stereo partly drawn) [Compound 1a, 3β-Hydroxyolea-12-en-28-oic acid-3,5,6-trimethylpyrazin-2-methyl ester] | 13.2 | 14.8 | 15.2 | 10.2 | 14.1 | > 20 | – | – | – | – | – | – | – |
| Cc1nc(C)c(COC(=O)[C@]23CCC(C)(C)CC2C2=CCC4[C@@]5(C)CC[C@H](OC(=O)c6nc(C)c(C)nc6C)C(C)(C)C5CC[C@@]4(C)[C@]2(C)CC3)nc1C (stereo partly drawn) [Compound 1b, 3β-Hydroxyolea-(3,5,6-trimethylpyrazin-2-carbonyl)-12-en-28-oic acid-3,5,6-trimethylpyrazin-2-methyl ester] | > 20 | 12.1 | 10.6 | > 20 | > 20 | > 20 | 193 to 193.7 | – | – | – | – | – | – |
| Cc1nc(C)c(C(=O)OC2CCC3(C)C(CCC4(C)C3CC=C3C5CC(C)(C)CCC5(C(=O)OCc5ccccc5)CCC34C)C2(C)C)nc1C (stereo not drawn) [Compound 1c, 3β-Hydroxyolea-(3,5,6-trimethylpyrazin-2-carbonyl)-12-en-28-oic acid-benzyl ester] | > 20 | > 20 | > 20 | > 20 | > 20 | – | 194.2 to 194.9 | – | – | – | – | – | – |
| Cc1nc(C)c(C(=O)OC2CCC3(C)C(CCC4(C)C3CC=C3C5CC(C)(C)CCC5(C(=O)O)CCC34C)C2(C)C)nc1C (stereo not drawn) [Compound 1d, 3β-Hydroxyolea-(3,5,6-trimethylpyrazin-2-carbonyl)-12-en-28-oic acid] | 8.43 | 7.94 | 5.69 | 9.28 | 4.37 | 16.4 | 289.7 to 290.5 | – | – | – | – | – | – |
| Cc1nc(C)c(COC(=O)[C@]23CC[C@@H](C)[C@H](C)C2C2=CCC4[C@@]5(C)CC[C@H](O)C(C)(C)C5CC[C@@]4(C)[C@]2(C)CC3)nc1C (stereo partly drawn) [Compound 2a, 3β-Hydroxyurs-12-en-28-oic acid-3,5,6-trimethylpyrazin-2-methyl ester] | 17.6 | > 20 | > 20 | 8.01 | 20 | > 20 | 125.9 to 126.7 | – | – | – | – | – | – |
| Cc1nc(C)c(COC(=O)[C@]23CC[C@@H](C)[C@H](C)C2C2=CCC4[C@@]5(C)CC[C@H](OC(=O)c6nc(C)c(C)nc6C)C(C)(C)C5CC[C@@]4(C)[C@]2(C)CC3)nc1C (stereo partly drawn) [Compound 2b, 3β-Hydroxyurs-(3,5,6-trimethylpyrazin-2-carbonyl)-12-en-28-oic acid-3,5,6-trimethylpyrazin-2-methyl ester] | > 20 | > 20 | > 20 | > 20 | > 20 | – | 168.2 to 168.9 | – | – | – | – | – | – |
| Cc1nc(C)c(C(=O)OC2CCC3(C)C(CCC4(C)C3CC=C3C5C(C)C(C)CCC5(C(=O)OCc5ccccc5)CCC34C)C2(C)C)nc1C (stereo not drawn) [Compound 2c, 3β-Hydroxyurs-(3,5,6-trimethylpyrazin-2-carbonyl)-12-en-28-oic acid-benzyl ester] | > 20 | > 20 | > 20 | > 20 | > 20 | – | 218.5 to 219.3 | – | – | – | – | – | – |
| Cc1nc(C)c(C(=O)OC2CCC3(C)C(CCC4(C)C3CC=C3C5C(C)C(C)CCC5(C(=O)O)CCC34C)C2(C)C)nc1C (stereo not drawn) [Compound 2d, 3β-Hydroxyurs-(3,5,6-trimethylpyrazin-2-carbonyl)-12-en-28-oic acid] | 9.7 | > 20 | 9.49 | 10.1 | 9.66 | > 20 | 305.9 to 306.6 | – | – | – | – | – | – |
| Cc1nc(C)c(COC(=O)[C@@]2(C)CC[C@]3(C)CC[C@]4(C)C(=CC(=O)C5[C@@]6(C)CC[C@H](O)C(C)(C)C6CC[C@]54C)C3C2)nc1C (stereo partly shown) [Compound 3a, 3-Hydroxy-11-oxoolean-12-en-30-oic acid-3,5,6-trimethylpyrazin-2-methyl ester] | 19.9 | > 20 | > 20 | > 20 | 11.2 | > 20 | – | – | – | – | – | – | – |
| C=C(C)[C@@H]1CC[C@]2(C(=O)OCc3nc(C)c(C)nc3C)CC[C@]3(C)C(CCC4[C@@]5(C)CC[C@H](OC(=O)c6nc(C)c(C)nc6C)C(C)(C)C5CC[C@]43C)C12 (stereo partly drawn) [Compound 4b, 3β-Hydroxy-(3,5,6-trimethylpyrazin-2-carbonyl)-lup-20(29)-ene-28-oic acid-3,5,6-trimethylpyrazin-2-methyl ester] | > 20 | 13.2 | 12.9 | > 20 | > 20 | > 20 | 142.1 to 142.9 | – | – | – | – | – | – |
| C=C(C)C1CCC2(C(=O)OCc3ccccc3)CCC3(C)C(CCC4C5(C)CCC(OC(=O)c6nc(C)c(C)nc6C)C(C)(C)C5CCC43C)C12 (stereo not drawn) [Compound 4c, 3β-Hydroxy-(3,5,6-trimethylpyrazin-2-carbonyl)-lup-20(29)-ene-28-oic acid-benzyl ester] | > 20 | > 20 | > 20 | > 20 | > 20 | – | 162.1 to 162.8 | – | – | – | – | – | – |
| C=C(C)C1CCC2(C(=O)O)CCC3(C)C(CCC4C5(C)CCC(OC(=O)c6nc(C)c(C)nc6C)C(C)(C)C5CCC43C)C12 (stereo not drawn) [Compound 4d, 3β-Hydroxy-(3,5,6-trimethylpyrazin-2-carbonyl)-lup-20(29)-ene-28-oic acid] | 8.38 | 7.42 | 6.22 | 13.3 | 12.2 | > 20 | 279.5 to 280.3 | – | – | – | – | – | – |
| N.N.[Cl][Pt][Cl] [DDP, cisplatin, reference compound] | – | – | – | – | – | – | – | 5.28 | 4.57 | 14.6 | 5.17 | 5.91 | 6.22 |
| CC1(C)[C@@H](O)CC[C@]2(C)[C@H]3C(=O)C=C4[C@@H]5C[C@@](C)(C(=O)O)CC[C@]5(C)CC[C@@]4(C)[C@]3(C)CC[C@@H]12 [GA, glycyrrhetic acid, reference compound] | – | – | – | – | – | – | – | > 20 | > 20 | – | > 20 | > 20 | > 20 |
| CC1(C)CC[C@]2(C(=O)O)CC[C@]3(C)C(=CC[C@@H]4[C@@]5(C)CC[C@H](O)C(C)(C)[C@@H]5CC[C@]43C)[C@@H]2C1 [OA, oleanolic acid, reference compound] | > 20 | > 20 | > 20 | > 20 | > 20 | – | – | – | – | – | – | – | – |
| Cc1nc(C)c(C)nc1C [TMP, ligustrazine] | > 20 | > 20 | > 20 | > 20 | > 20 | – | – | – | – | – | – | – | – |
| C[C@H]1[C@H](C)CC[C@]2(C(=O)O)CC[C@]3(C)C(=CC[C@@H]4[C@@]5(C)CC[C@H](O)C(C)(C)[C@@H]5CC[C@]43C)[C@H]12 [UA, ursolic acid, reference compound] | > 20 | > 20 | > 20 | > 20 | > 20 | – | – | – | – | – | – | – | – |
